Laboratory results as given in paper PMC5651862 (Scientific Reports, 2017).

Legend:
[1] = Resazurin conversion assay (cytotoxicity); assay type: cell-based; settings: human, HEK293 cells, HEK293, vs DMSO 0.1%, read-out: cell viability
Protocol: Assessment of cytotoxicity […]
on cell viability assessed by the resazurin conversion assay in HEK293 cells. HEK293 cells were […]
conversion was measured after 4 hours. Results are expressed as % cell viability compared to the solvent control DMSO (0.1%). Data are expressed as means ± SD of three independent experiments performed in quadruplicate. (One-way ANOVA, Dunnett´s test, p<0.01**). […]
resofurin. Conversion of this non-fluorescent agent to resofurin depends on redox equivalents provided by cellular metabolism. Thus, the conversion (fluorescence signal) is direct proportional to the number of viable cells and thus to cell viability. HEK293 cells (ATCC, Manassas, VA) were seeded in 96-well plates at a density of 40,000 cells per well and incubated for 24 hours in DMEM supplemented with 2 mM glutamine, 100 U/ml benzylpenicillin, 100 μg/ml streptomycin, and 10% fetal bovine serum. Next day, cells were incubated with increasing concentrations of the indicated […]
After 24 hours of incubation with the test compounds cells were washed again in PBS and then incubated with 10 μg/mL resazurin […]
solution in PBS. After 4 hours plates were read on a Tecan GeniosPro plate reader using an excitation wavelength of 535 nm and an emission wavelength of 580 nm. […]

[2] = target: T1, purified human PPARγ LBD (Homo sapiens, UniProt P37231); experiment: LanthaScreen TR-FRET PPARγ competitive binding assay
T1 construct: purchased Invitrogen
T1 sequence (P37231 238-503 limits assumed): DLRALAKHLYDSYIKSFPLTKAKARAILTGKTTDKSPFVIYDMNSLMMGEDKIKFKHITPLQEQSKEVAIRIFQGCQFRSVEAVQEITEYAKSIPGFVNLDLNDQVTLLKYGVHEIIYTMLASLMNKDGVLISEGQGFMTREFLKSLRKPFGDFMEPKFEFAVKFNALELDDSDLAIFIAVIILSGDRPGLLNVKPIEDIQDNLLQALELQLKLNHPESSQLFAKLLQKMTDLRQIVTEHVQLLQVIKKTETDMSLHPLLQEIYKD
Protocol: In this assay a fluorescently labeled ligand (Fluormone, Invitrogen) is displaced upon binding of the tested compound leading to a decrease in the FRET signal. Binding to the receptor was assessed in a concentration-dependent manner. […] Compounds that bind to the PPARγ LBD displace the fluorescently labeled ligand […]. […] Data points are represented as mean ± SEM from four independent experiments performed in duplicate. […] HEK-293 cells were transfected as described in the Methods section and stimulated for 18 h, as indicated. Luciferase activity was normalized to EGFP-derived fluorescence. Results are expressed as fold induction compared with the solvent control (DMSO, 0.1%). EC50 values were calculated using a sigmoidal curve fit with variable slope. […] HEK293 cells were transfected as described in the Methods section, treated as indicated for 18 h and luciferase activity measured as under (A). All data are shown as means ± SD of at least three independent experiments performed in quadruplicate. […] The compounds were dissolved in DMSO (solvent vehicle) and incubated together with the human PPARγ LBD tagged with GST, terbium-labeled anti-GST antibody and fluorescently labeled PPAR ligand (Fluormone™ Pan-PPAR Green). Binding of a ligand results in a fluorescence resonance energy transfer (FRET) after excitation of terbium at 340 nm and in an emission at 520 nm. Test compounds binding to the human PPARγ LBD are competing with the fluorescently labeled ligand and displacing it, resulting in a decrease of the FRET signal. […] All quantifications were performed with a GeniosPro plate reader (Tecan).
To calculate the EC50 values data were curve fitted and non-linear transformed using a sigmoidal dose response with variable slope.

[3] = target: T2, PPARγ/RXRα heterodimer (Homo sapiens, UniProt P19793+P37231); experiment: PPARγ/RXRα heterodimer-induced luciferase reporter transactivation in co-transfected HEK293 cells; assay type: cell-based; settings: 18 h
T2 construct: transfected with 6 μg of full-length human PPARγ and full-length human RXRα expression plasmid, respectively or both; expressed in transfected cells; host or cells: HEK293
T2 sequence (P37231 1-477 isoform P37231-2): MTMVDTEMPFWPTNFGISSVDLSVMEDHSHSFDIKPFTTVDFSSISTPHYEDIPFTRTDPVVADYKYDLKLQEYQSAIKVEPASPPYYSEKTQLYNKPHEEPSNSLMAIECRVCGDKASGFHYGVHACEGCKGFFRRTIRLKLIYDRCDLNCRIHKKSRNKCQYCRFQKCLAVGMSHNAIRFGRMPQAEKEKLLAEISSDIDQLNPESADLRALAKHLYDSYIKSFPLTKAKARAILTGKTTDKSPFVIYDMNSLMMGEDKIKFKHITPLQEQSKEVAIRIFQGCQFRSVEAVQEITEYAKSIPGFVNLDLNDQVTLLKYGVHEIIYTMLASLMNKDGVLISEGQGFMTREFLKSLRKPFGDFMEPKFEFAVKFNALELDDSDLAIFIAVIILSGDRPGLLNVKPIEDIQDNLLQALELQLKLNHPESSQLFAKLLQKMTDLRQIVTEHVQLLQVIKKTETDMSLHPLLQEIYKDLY
T2 sequence (P19793 1-462): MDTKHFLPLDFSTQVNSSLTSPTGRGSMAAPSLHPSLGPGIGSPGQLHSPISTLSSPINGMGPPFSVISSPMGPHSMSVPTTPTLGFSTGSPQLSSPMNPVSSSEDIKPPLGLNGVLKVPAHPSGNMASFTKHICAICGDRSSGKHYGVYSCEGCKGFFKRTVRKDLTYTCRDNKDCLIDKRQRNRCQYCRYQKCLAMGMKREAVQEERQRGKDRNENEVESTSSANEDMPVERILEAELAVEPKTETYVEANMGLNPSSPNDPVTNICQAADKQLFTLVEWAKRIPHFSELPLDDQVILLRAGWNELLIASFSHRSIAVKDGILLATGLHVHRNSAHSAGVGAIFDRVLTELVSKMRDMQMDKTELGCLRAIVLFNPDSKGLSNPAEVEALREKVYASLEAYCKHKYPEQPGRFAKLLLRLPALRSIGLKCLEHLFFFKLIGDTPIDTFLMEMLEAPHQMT
From the text: Luciferase activity was normalized to EGFP-derived fluorescence.

[4] = tested on: 3T3-L1 preadipocytes; experiment: Adipocyte differentiation in 3T3-L1 pre-adipocytes (Oil Red O); assay type: cell-based; settings: 1–10 µM, 8 days, insulin 1 µg/mL
Protocol: PPARγ plays a major role in adipocyte differentiation and in the regulation of adipose-related genes that are involved in developing the adipose phenotype. […]
solution in PBS. After 4 hours plates were read on a Tecan GeniosPro plate reader using an excitation wavelength of 535 nm and an emission wavelength of 580 nm.
Adipocyte differentiation in 3T3-L1 cells
Insulin control Rosiglitazone (1 µM) […]
dimer (1). 3T3-L1 cells were incubated in medium containing insulin (1 µg/mL) for 8 days with or […]
µM) was used as positive control. The medium was exchanged every second day. At day 8, cells were fixed in 10% formaldehyde, stained with Oil Red O and photographed (A). Oil Red O was then […]
solubilized and quantified at 550 nm using a plate reader (B). Lipid accumulation is expressed as fold increase compared to the insulin/solvent control (1 µg/mL insulin in 0.1 % DMSO) and is expressed as means ± SD of three independent experiments (One-way ANOVA, Bonfferoni post test, p<0.05 *). […]
Medium was exchanged every second day. After eight days, lipid accumulation (as a measure of adipogenic differentiation) was determined by Oil Red O staining as described previously.5 For this, cells were fixed in 10% formaldehyde for 1 h and stained with Oil Red O for 10 minutes. […]

[5] = target: T3, full-length human RXRα (Homo sapiens, UniProt P19793); experiment: RXRα-dependent luciferase reporter gene transactivation in HEK293 cells; settings: HEK293, 18 h, up to 10 µM
T3 sequence (P19793 1-462): T2 sequence (P19793 1-462)

[6] = target: T4, full-length human PPARγ (Homo sapiens, UniProt P37231); experiment: PPARγ-dependent luciferase reporter gene transactivation in HEK293 cells
T4 sequence (P37231 1-477 isoform P37231-2): T2 sequence (P37231 1-477 isoform P37231-2)

Structure (SMILES)	viability at 24 h, 10 µM [1] [%]	viability at 24 h, 30 µM [1] [%]	Ki ([2]; competitive displacement of Fluormone Pan-PPAR Green, Cheng-Prusoff, four independent experiments in duplicate) [µM]	fold higher affinity to human PPARγ LBD compared to magnolol ([2]; ratio of Ki values)	fold higher affinity to human PPARγ LBD compared to pioglitazone ([2]; ratio of Ki values)	fold activation of PPARγ/RXRα heterodimer, co-treatment with bexarotene ([3]; 10 µM compound plus full RXR agonist bexarotene, HEK293 co-transfected) [fold]	fold activation of PPARγ/RXRα heterodimer ([3]; 10 µM, HEK293 co-transfected with PPARγ and RXRα, vs DMSO 0.2%) [fold]	adipocyte differentiation (result in words) [4]	RXRα-dependent luciferase gene expression (result in words) [5]	RXRα-dependent luciferase gene expression (result in words) ([5]; listed as the dimer)	EC50 [6] [µM]	Emax PPARγ-dependent luciferase transactivation ([6]; HEK293, 18 h, Emax values ± SD, results as fold induction vs DMSO)	efficacy compared to pioglitazone ([6]; HEK293, Emax relative to full agonist pioglitazone)	fold lower potency compared to magnolol ([6]; ratio of EC50 values)
C=CCc1ccc(O)c(-c2cc(CC=C)ccc2O)c1 [magnolol, reference compound]	≥ 90	9.1 ± 9.05	–	–	–	–	–	–	–	–	–	–	–	–
C=CCc1ccc(O)c(-c2cc(CC=CCCCc3cc(O)c(-c4cc(CC=C)ccc4O)cc3CC=C)ccc2O)c1 [magnolol dimer (1)]	≥ 90	22.7 ± 5.35	0.00503	more than 12 fold	more than 16 fold	13.20 ± 3.98	3.82 ± 1.22	induces adipocyte differentiation	does not activate RXRα-dependent luciferase gene expression	did not transactivate RXRα-dependent luciferase gene expression	1.52	4.67 ± 0.26	around 62%	about 1.5 fold
